# Reference: patent US20230109839A1, “THERAPEUTIC AGENT FOR TAUOPATHIES” (SUMITOMO PHARMA CO., LTD., priority 2020, published 2023)
# Entries after “also recorded” stand apart in the source; their conditions may differ.
# Experiments:
# Assay type in all cases: in vivo, mouse
# [1] = tested on: phosphorylated tau oligomer; assay: Evaluation of phosphorylated tau oligomers in brain of APP-Tg mice, Western blotting (Test 4); details: for Reducing effect of phosphorylated tau oligomer: 7-10 days, with ABT 1 mg/g-food
# Experimental: Test 4: Evaluation of Phosphorylated Tau Oligomers Using APP-Tg Mice
# This test is a test to quantify the oligomer of phosphorylated tau in the brain to evaluate the action of a compound. […] The APP-Tg mice used herein were prepared by the method described in Test 3.
# The test compound administered with food to APP-Tg mice for 7-10 days. At this time, in order to increase the blood concentration of the test compound, ABT was used in combination with a mixed diet of 1 mg/g-food depending on the compound. After the administration, the brain was collected, and the protein is extracted from the collected brain using TBS (Tris Buffered Saline) or sarcosyl, and then SDS-PAGE (sodium dodecyl sulfate-polyacrylamide gel electrophoresis) of the soluble or insoluble fraction was performed. After that, Western blotting was performed using an anti-oligomerized tau antibody (Anti-Tau, oligomeric, clone TOMA-1), and the effect of the test compound was evaluated by quantifying the band amount of the phosphorylated tau oligomer.
# The reducing effect of phosphorylated tau oligomer was calculated by the following formula, and from the calculated values, the results were defined as follows: 0-25%: +, 25-50%: ++, 50-75%: +++, and 75-100%: ++++. The significant difference from the vehicle-administered group was determined using the Student t-test. For the band amount, the value corrected by the β-actin band amount was used.
# Reducing effect of phosphorylated tau oligomer={(band amount of oligomerized tau in vehicle-administered group−band amount of oligomerized tau in test compound-administered group)/band amount of oligomerized tau in vehicle-administered group}×100
# [2] = tested on: intracerebral tau aggregate accumulation; assay: Intracerebral tau aggregate accumulation in rTg4510 mice, tau PET with [18F] PM-PBB3, SUVR (Test 5); details: for SUVR(cerebellum ratio) cerebral neocortex / SUVR(cerebellum ratio) hippocampus: 4.5 mg/g-food, with ABT 1 mg/g-food
# Source text: (§1) Test 5: Evaluation of Intracerebral Tau Aggregate Accumulation and Cerebral Atrophy Using rTg4510 Mice
# (§2) This test is a test to evaluate the effects of the compounds on intracerebral tau aggregate accumulation and cerebral atrophy. The rTg4510 mice overexpress the human-type FTDP-17 mutant tau in the forebrain, and month-age-dependent intracerebral tau aggregate accumulation and cerebral atrophy are observed. The rTg4510 mice used herein were produced by mating Tg (tauP301L) 4510 mice (Stock No. 015815) and CaMKII-tTA mice (Stock No. 007004) purchased from The Jackson Laboratory and breeding them.
# (§3) The test compound was administered as a mixed diet to rTg4510 mice from the age of 4 months, and PET scan and MRI were performed at the ages of 4, 6 and 8 months to quantitatively evaluate the amount of the intracerebral tau aggregate accumulated and cerebral atrophy. The PET scan was performed using MicroPET Focus 220 of Siemens Medical Solutions (0.851 mm thick (intercenter) 95 slices, 19.0 cm axial field of view (FOV), and 7.6 cm intra-section FOV). The administration of radioactive compound [^18F] PM-PBB3 (precursor obtained from Aprinoia) and the PET scan were performed in dimly lit after the mice was treated with 1.5% isoflurane anesthesia to avoid […] of the radioactive compound. The emission scan was performed for 60 minutes immediately after the intravenous administration of [^18F] PM-PBB3 (1 mCi) (3D list mode, energy window: 350-750 keV). Then, the list mode data sorted into 3D synograms were converted into 2D synograms by Fourier-rebinding (frames: 4×1, 8×2 and 8×5 minutes). The dynamic image for 60 minutes after the administration of [^18F] PM-PBB3 was reconstructed by a filter-corrected back projection with a 0.5 mm Hanning filter. Regions of interest (ROI) were set in multiple brain regions using PMOD image analysis software (PMOD Technology) with reference to the MRI templates and the PET reconstructed images. Tau aggregate accumulation was evaluated by calculating SUVR (Standardized uptake value ratio) with the cerebellum as a reference region, based on the added average of dynamic images from 40 minutes to 60 minutes.
# rTg4510 mice = assay: Cerebral atrophy in rTg4510 mice, MRI volume of brain regions (Test 5); details: for lateral ventricular volume (mm^3): 4.5 mg/g-food, with ABT 1 mg/g-food
# Source text: as §1, §2, §3
# The evaluation of cerebral atrophy was performed with horizontal superconducting magnet type MRI (7T, inner diameter 400 mm, self-shielding type, zero boil-off type). The imaging was performed under isoflurane anesthesia while maintaining the rectal temperature at 36.5±0.5° C. After Tripilot acquisition, the brain images were acquired by TurboRARE T2 emphasis sequence (TR: 4200 ms, TE: 36 ms, Fat-Sup: on, NA: 4, RARE factor: 8, scan time: 14 min) (FOV read: 25.6 mm, FOV P1: 14.5 mm, Slice thickness: 0.5 mm, number of slices: 28). The ROI of each brain region was set in each of the acquired slices, and the volume of the brain region was calculated by summing the ROI areas of all the slices to evaluate the effect of the test compound.
# [3] = mixed diet 4.5 mg/g-food with ABT 1 mg/g-food
smiles,measurement,setting,value
"N#Cc1ccc(NC(=O)Cn2nc(N3CCC4(CC4)C(F)(F)C3)ccc2=O)cn1 [Example 560, N-(6-cyanopyridin-3-yl)-2-[3-(4,4-difluoro-6-azaspiro[2.5]octan-6-yl)-6-oxopyridazin-1(6H)-yl]acetamide]",Reducing effect of phosphorylated tau oligomer,[1]; dose 0.5 mg/g-food,++ (25-50%: ++)
same,Reducing effect of phosphorylated tau oligomer,[1]; dose 4.5 mg/g-food,++++ (75-100%: ++++)
same,reducing effect of tau oligomer,"[1]; with food for 7-10 days, ABT 1 mg/g-food depending on the compound, brain, anti-oligomerized tau antibody TOMA-1",some reducing effect of tau oligomer; also recorded: strong reducing effect of tau oligomer
same,SUVR(cerebellum ratio) cerebral neocortex,[2]; 4 month old,1.026 ± 0.037
same,SUVR(cerebellum ratio) hippocampus,[2]; 4 month old,1.103 ± 0.036
same,SUVR(cerebellum ratio) cerebral neocortex,[2]; 6 month old,1.224 ± 0.060
same,SUVR(cerebellum ratio) hippocampus,[2]; 6 month old,1.328 ± 0.078
same,SUVR(cerebellum ratio) cerebral neocortex,[2]; 8 month old,1.351 ± 0.049
same,SUVR(cerebellum ratio) hippocampus,[2]; 8 month old,1.468 ± 0.056
same,age-dependent increase in SUVR in the cerebral neocortex and hippocampus (FIG. 7),[2]; [3],tended to be suppressed
same,"increase in PET tracer accumulation in each brain region with aging (average SUVR images, FIG. 6)","[2]; mixed diet 4.5 mg/g-food with ABT 1 mg/g-food, ages 4, 6 and 8 months",suppressed
same,lateral ventricular volume (mm^3),rTg4510 mice; 4 month old,0.47 ± 0.06 mm^3
same,lateral ventricular volume (mm^3),rTg4510 mice; 6 month old,0.34 ± 0.10 mm^3
same,lateral ventricular volume (mm^3),rTg4510 mice; 8 month old,0.71 ± 0.35 mm^3
same,age-dependent increase in lateral ventricular volume,rTg4510 mice; [3],suppressed
